pIC50: −log10 of the molar value. Converted amounts (≈) assume the structure as drawn.
Columns and labels:
Escherichia coli = assay: Antibacterial activity against Escherichia coli isolate 35 ATCC 25922; format: functional
[1] = target: T1, UDP-3-O-acyl-N-acetylglucosamine deacetylase (Escherichia coli K-12, UniProt P0A725); assay: Inhibition of LpxC in Escherichia coli isolate 35 ATCC 25922; parameters: species or system Escherichia coli ATCC 25922
T1 sequence (P0A725 whole entry): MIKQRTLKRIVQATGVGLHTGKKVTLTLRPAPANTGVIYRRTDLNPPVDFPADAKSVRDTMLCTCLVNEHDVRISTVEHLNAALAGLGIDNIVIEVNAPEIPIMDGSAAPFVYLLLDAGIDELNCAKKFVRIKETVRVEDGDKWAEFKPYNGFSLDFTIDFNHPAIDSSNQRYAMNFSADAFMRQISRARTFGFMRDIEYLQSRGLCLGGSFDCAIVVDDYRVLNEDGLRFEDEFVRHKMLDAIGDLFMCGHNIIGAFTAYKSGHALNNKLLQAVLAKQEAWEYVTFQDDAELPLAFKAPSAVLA

Pseudomonas aeruginosa [2] = assay: Antibacterial activity against Pseudomonas aeruginosa isolate 44 ATCC 27853; format: functional
[3] = Inhibition of LpxC in Acinetobacter baumannii focus ID 961025
[4] = target: T2, UDP-3-O-acyl-N-acetylglucosamine deacetylase (Pseudomonas aeruginosa (strain ATCC 15692 / PAO1 / 1C / PRS 101 / LMG12228), UniProt P47205); assay: Inhibition of LpxC in Pseudomonas aeruginosa isolate 44 ATCC 27853
T2 sequence (P47205 whole entry): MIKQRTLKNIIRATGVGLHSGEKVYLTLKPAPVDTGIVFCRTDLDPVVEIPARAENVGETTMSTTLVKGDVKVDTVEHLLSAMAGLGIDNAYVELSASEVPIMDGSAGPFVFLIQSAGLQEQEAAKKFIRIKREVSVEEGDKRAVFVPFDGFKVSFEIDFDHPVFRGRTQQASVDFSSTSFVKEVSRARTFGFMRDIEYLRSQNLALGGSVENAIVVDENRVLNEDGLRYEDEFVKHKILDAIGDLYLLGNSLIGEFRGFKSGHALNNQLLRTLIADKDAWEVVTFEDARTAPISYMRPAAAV

Klebsiella pneumoniae = assay: Antibacterial activity against Klebsiella pneumoniae isolate 21 ATCC 4352; format: functional
[5] = Inhibition of LpxC in Klebsiella pneumoniae isolate 21 ATCC 4352
Acinetobacter baumannii = assay: Antibacterial activity against Acinetobacter baumannii focus ID 961025; format: functional
Pseudomonas aeruginosa [6] = assay: Antibacterial activity against Pseudomonas aeruginosa isolate 839 harboring mexAB-oprM deletion mutant; format: functional
Pseudomonas aeruginosa [7] = assay: Antibacterial activity against Pseudomonas aeruginosa isolate 847; format: functional

Row | Structure (SMILES) | MIC (Escherichia coli) [µg/mL] | pIC50 [1] | MIC (Pseudomonas aeruginosa [2]) [µg/mL] | pIC50 [3] | pIC50 [4] | MIC (Klebsiella pneumoniae) [µg/mL] | pIC50 [5] | MIC (Acinetobacter baumannii) [µg/mL] | MIC (Pseudomonas aeruginosa [6]) [µg/mL] | MIC (Pseudomonas aeruginosa [7]) [µg/mL]
1 | C[C@@H](O)[C@H](NC1COCc2cc(C#Cc3ccc(CN4CCOCC4)cc3)ccc21)C(=O)NO (some centres not stated) | 0.25 (≈ 0.537 µM) | 9.00 | 64 (≈ 137 µM) | 7.60 | 8.22 | < 0.125 | 9.00 | 64 (≈ 137 µM) |  | 
2 | C[C@@H](O)[C@H](N[C@H]1CCc2cc(C#Cc3ccc(CN4CC(O)C4)cc3)ccc21)C(=O)NO | 4 (≈ 9.18 µM) | 6.90 | 4 (≈ 9.18 µM) |  | 7.20 | 0.125 (≈ 0.287 µM) |  |  | 0.5 (≈ 1.15 µM) | 
3 | CC(C)(O)[C@H](N[C@H]1CCc2cc(C#Cc3ccc(CN4CCN(CCO)CC4)cc3)ccc21)C(=O)NO | 4 (≈ 7.9 µM) | 7.39 | 4 (≈ 7.9 µM) |  | 7.85 |  |  |  | 0.5 (≈ 0.987 µM) | 32 (≈ 63.2 µM)
4 | C[C@@H](O)[C@H](NC1CCN(C)c2cc(C#Cc3ccc(CN4CCOCC4)cc3)ccc21)C(=O)NO (some centres not stated) | 2 (≈ 4.18 µM) | 8.70 | > 32 | 6.48 | 7.74 | 0.125 (≈ 0.261 µM) | 8.70 | > 32 |  | 
5 | CC(N[C@H](C(=O)NO)[C@@H](C)O)c1ccc(C#Cc2ccccc2)cc1 (some centres not stated) | 4 (≈ 11.8 µM) | 7.02 | > 64 | 6.80 | 7.14 | 1 (≈ 2.96 µM) | 7.19 | 64 (≈ 189 µM) |  | 
6 | C[C@@H](O)[C@H](NC1CCCc2cc(C#Cc3ccccc3)ccc21)C(=O)NO (some centres not stated) | 1 (≈ 2.74 µM) | 9.00 | 32 (≈ 87.8 µM) | 7.40 | 8.30 | 0.25 (≈ 0.686 µM) | 9.70 | 16 (≈ 43.9 µM) |  | 
7 | C[C@@H](O)[C@H](NCc1ccc(C#Cc2ccccc2)cc1)C(=O)NO | 4 (≈ 12.3 µM) | 7.17 | > 128 | 7.77 | 7.70 | 0.5 (≈ 1.54 µM) | 7.32 | 32 (≈ 98.6 µM) |  | 
8 | C[C@@H](O)[C@H](N[C@H]1CCc2cc(C#Cc3ccc(CN4CCN(C)CC4)cc3)ccc21)C(=O)NO | 0.25 (≈ 0.54 µM) | 7.28 | 8 (≈ 17.3 µM) |  | 7.52 | 0.125 (≈ 0.27 µM) | 7.49 |  | 1 (≈ 2.16 µM) | 
9 | C[C@@H](O)[C@H](N[C@H]1CCc2cc(C#Cc3ccc(Cn4ccnc4CO)cc3)ccc21)C(=O)NO | 1 (≈ 2.17 µM) | 8.22 | 4 (≈ 8.69 µM) |  |  |  | 8.40 |  | 0.5 (≈ 1.09 µM) | 4 (≈ 8.69 µM)
10 | CCCCC(N[C@H](C(=O)NO)[C@@H](C)O)c1ccc(C#Cc2ccccc2)cc1 (some centres not stated) | 64 (≈ 168 µM) | 6.27 | > 128 | 5.84 | 6.21 | 2 (≈ 5.26 µM) | 6.14 | > 128 |  | 
11 | C[C@@H](O)[C@H](NC1CN(C)Cc2cc(C#Cc3ccccc3)ccc21)C(=O)NO (some centres not stated) | 2 (≈ 5.27 µM) | 7.55 | > 128 | 6.51 | 6.97 | 0.5 (≈ 1.32 µM) | 7.74 | > 128 |  | 
12 | C[C@@H](O)[C@H](NC1CCOc2cc(C#Cc3ccc(CN4CCOCC4)cc3)ccc21)C(=O)NO (some centres not stated) | 2 (≈ 4.3 µM) | 9.00 | 16 (≈ 34.4 µM) | 7.08 | 8.22 | < 0.125 | 8.70 | 64 (≈ 137 µM) |  | 
13 | CCCC(N[C@H](C(=O)NO)[C@@H](C)O)c1ccc(C#Cc2ccccc2)cc1 (some centres not stated) | 2 (≈ 5.46 µM) | 7.22 | 64 (≈ 175 µM) | 6.56 | 7.30 | 0.25 (≈ 0.682 µM) | 7.28 | 32 (≈ 87.3 µM) |  | 
14 | CC(C)(N)[C@H](NC1COCc2cc(C#Cc3ccc(Cn4ccnc4CO)cc3)ccc21)C(=O)NO (some centres not stated) | 4 (≈ 8.17 µM) | 8.52 | 4 (≈ 8.17 µM) |  | 8.30 |  |  |  | 0.5 (≈ 1.02 µM) | 16 (≈ 32.7 µM)
15 | C[C@@H](O)[C@H](N[C@H]1CCc2cc(C#Cc3ccc(Cn4ccnc4CCO)cc3)ccc21)C(=O)NO | 1 (≈ 2.11 µM) | 8.30 | 4 (≈ 8.43 µM) |  | 8.30 |  | 8.52 |  | 0.125 (≈ 0.263 µM) | 4 (≈ 8.43 µM)
16 | C[C@@H](O)[C@H](N[C@H]1CCc2cc(C#Cc3ccc(CN4CCCCC4)cc3)ccc21)C(=O)NO | 0.5 (≈ 1.12 µM) | 8.00 | 16 (≈ 35.7 µM) |  | 8.00 | 0.5 (≈ 1.12 µM) | 8.30 |  | 2 (≈ 4.47 µM) | 

Source: ChEMBL document CHEMBL4049409, “Structure-based discovery of LpxC inhibitors” (Bioorg Med Chem Lett, 2017)
